Experimental findings from patent US7893256B2, “Azabicycloalkane compounds” (Theravance, Inc., priority 2003, dated 2011) are described below.

Structures are written as SMILES.

In this assay the target is T1, hM3 receptor (Homo sapiens, UniProt P20309).
T1 construct: expressed in transfected cells
Kind of assay: Blockade of agonist-mediated calcium release via FLIPR assays (Assay Test Procedure D, C). The class given is cell-based. Particulars: CHO cells stably expressing the hM3 receptor. The source says:
Muscarinic receptor subtypes (M1, M3 and M5 receptors), which couple to Gq proteins, activate the phospholipase C (PLC) pathway upon agonist binding to the receptor. As a result, activated PLC hydrolyzes phosphatyl inositol diphosphate (PIP2) to diacylglycerol (DAG) and […] (IP3), which in turn generates calcium release from intracellular stores, i.e., endoplasmic and sarcoplasmic reticulum. The FLIPR (Molecular Devices, Sunnyvale, Calif.) assay capitalizes on this increase in intracellular calcium by using a calcium sensitive dye (Fluo-4AM, Molecular Probes, Eugene, Oreg.) that fluoresces when free calcium binds. This fluorescence event is measured in real time by the FLIPR, which detects the change in fluorescence from a monolayer of cells cloned with human M1 and M3, and chimpanzee M5 receptors. Antagonist potency can be determined by the ability of antagonists to inhibit agonist-mediated increases in intracellular calcium. […]
To determine antagonist potency, the dose-dependent stimulation of intracellular Ca^2+ release for oxotremorine was first determined so that antagonist potency can later be measured against oxotremorine stimulation at an EC90 concentration. […]
The change of fluorescence is expressed as maximum fluorescence minus baseline fluorescence for each well. […]

T1 sequence (P20309 whole entry): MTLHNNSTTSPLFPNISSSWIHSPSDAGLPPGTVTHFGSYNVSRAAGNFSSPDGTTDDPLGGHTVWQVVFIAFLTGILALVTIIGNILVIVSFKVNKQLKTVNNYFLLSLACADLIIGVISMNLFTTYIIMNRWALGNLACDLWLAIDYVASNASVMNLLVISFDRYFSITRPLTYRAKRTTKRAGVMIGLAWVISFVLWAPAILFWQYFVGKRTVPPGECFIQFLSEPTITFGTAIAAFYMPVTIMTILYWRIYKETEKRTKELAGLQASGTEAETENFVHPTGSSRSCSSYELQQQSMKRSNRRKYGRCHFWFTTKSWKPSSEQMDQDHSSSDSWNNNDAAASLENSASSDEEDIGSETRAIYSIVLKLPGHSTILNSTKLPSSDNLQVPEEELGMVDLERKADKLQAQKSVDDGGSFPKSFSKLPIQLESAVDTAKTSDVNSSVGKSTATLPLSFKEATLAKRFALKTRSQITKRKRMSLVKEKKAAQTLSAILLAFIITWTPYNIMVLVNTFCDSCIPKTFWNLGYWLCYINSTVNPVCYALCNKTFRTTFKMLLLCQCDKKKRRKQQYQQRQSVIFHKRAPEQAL

For `C[N+]1(CCCCCCCCCNC[C@H](O)c2ccc(O)c3[nH]c(=O)ccc23)C2CC(OC(=O)C(O)(c3cccs3)c3cccs3)CC1C1OC12.C[N+]1(CCCCCCCCCNC[C@H](O)c2ccc(O)c3[nH]c(=O)ccc23)C2CC(OC(=O)C(O)(c3cccs3)c3cccs3)CC1C1OC12.O=C([O-])C(F)(F)F.O=C([O-])C(F)(F)F` (stereo partly drawn) [Example 1, 7-(2-Hydroxy-2,2-dithiophen-2-ylacetoxy)-9-{9-[(R)-2-hydroxy-2-(8-hydroxy-2-oxo-1,2-dihydroquinolin-5-yl)ethylamino]nonyl}-9-methyl-3-oxa-9-azonia-tricyclo[3.3.1.0^2,4]nonane Ditrifluoroacetate], the inhibition constant Ki (usually the equilibrium dissociation constant of an inhibitor or competing ligand from its target) is less than 50 nM.
